Assay results reported in patent publication US4665095A, “Use of 2-[(3,5-dihalo-4-aminobenzyl)]imidazolines to stimulate alpha-1 adrenergic receptors and to treat nasal congestion” (Abbott Laboratories, priority 1985, dated 1987).
Where a name gives a salt, the structure may show the parent alone.

Tests used:
[1] = tested on: nasal resistance in anesthetized dogs; assay: Effect on airway (nasal) resistance in anesthetized dogs following intranasal spray administration; type: in vivo, beagle dog; details: aerosol, mg per dog
Protocol: (§1) a. Method Beagle dogs of either sex, weighing 9-12 kg were anesthetized with nembutal (30 mg/kg, intravenously) with supplemental doses administered throughout the experiment as required. The dogs were intubated with a cuffed endotracheal tube and were ventilated with room air by means of a Harvard respiration pump. Arterial blood pressure was recorded from a femoral artery using a Statham P23Gb pressure transducer. A tachygraphic recording of heart rate was obtained from the blood pressure signal.
(§2) A constant flow of air (2 liters/minute); provided by an anesthetic machine (CAECO) was administered into a nasal cavity through a 6 cm long plastic tube tapered to a diameter of 6 mm to fit into the right nostril. The air perfused the nasal cavity and exited through the mouth. The resistance to the air flow exerted by the large surface area of the nasal mucosa was measured as a nasal pressure in cm of water, using Model MP 45 Validyne transducer. […] Since the amount of drug administered in this way is extremely small and not directly measurable, the doses were calculated from the concentration of drug in the humidifier and volume of fluid used in each administration (in mg per dog). The nasal resistance, heart rate and blood pressure were monitored prior to and then 2 hours following the drug administration. […]

[2] = Blood pressure and heart rate in anesthetized dogs following intranasal spray administration; type: in vivo, beagle dog
Protocol: as §1, §2

nasal mucosa of rats = assay: Effect on Nasal Irritation in Rats; type: in vivo, rat (CD strain)
Protocol: The product of Example 4 was dissolved in phosphate buffered normal saline and adjusted to a pH of approximately 7. The solution was prepared at the following concentrations: 0.05, 0.15, 0.5 and 1.5 percent. Groups of five male rats (CD strain) were administered each dose. The rats were approximately 5 weeks old at the start of treatment. Prior to dosing, ketaminehydrochloride was administered intraperitoneally to produce transient anesthesia to facilitate test compound administration. Rats in each group were given 0.04 mL/day of the appropriate solution for 14 days. The dosage was divided equally between both nostrils (i.e., 0.02 mL/nostril/day).

nasal mucosa = details: background art; cited from earlier work
[3] = up to 1.5%, 0.04 mL/day intranasal, 14 days

| Compound | threshold dose producing decrease of nasal resistance [1] [mg] | systematic hemodynamic effects ([2]; at the effective nasal decongestant dose) | elevation of the blood pressure above the base level ([2]; highest tested dose, 1.65 mg) | nasal mucosal injury (nasal mucosa of rats; [3]) | systemic toxic effects (nasal mucosa of rats; [3]) | irritation of the nasal mucosa (nasal mucosa) | toxicity or nasal injury (nasal mucosa of rats; 0.05% to 0.15% concentrations) | nasal mucosal injury (nasal mucosa of rats; 0.5% and 1.5% concentration) | systemic side effects and deaths (nasal mucosa of rats; 0.5% and 1.5%, repeated administration) |
| --- | --- | --- | --- | --- | --- | --- | --- | --- | --- |
| Nc1c(Cl)cc(CC2=NCCN2)cc1Cl [Example 4, 2-[(3,5-Dichloro-4-aminobenzyl)]imidazoline hydrochloride] | 0.00165 | devoid of any systematic hemodynamic effects | approximately 10% | no nasal mucosal injury | no nasal mucosal injury or any systemic toxic effects | – | – | – | – |
| c1ccc2c(CC3=NCCN3)cccc2c1 [naphazoline] | – | – | – | – | – | often cause irritation of the nasal mucosa | – | – | – |
| Cc1cc(C(C)(C)C)c(O)c(C)c1CC1=NCCN1 [oxymetazoline] | – | – | – | – | – | often cause irritation of the nasal mucosa | did not cause any toxicity or nasal injury | induced nasal mucosal injury | Systemic side effects and deaths occurred in most animals |
